Data from article PMC12298827, “Subchronic Toxicities of Four Per- and Polyfluoroalkyl Substances (PFASs) by Oral Exposure in Sprague–Dawley Rats” (Toxics, 2025).

Test system: male and female Sprague–Dawley rats
Assay: 90-day subchronic oral gavage toxicity study
Assay type: in vivo, rat
Details: male
Description: Subchronic (90-day) studies were performed in accordance with current U.S. EPA’s Toxic Substances Control Act Good Laboratory Practice (GLP) Standards, with the following two general exceptions to the GLP guidelines: Analysis of the dose formulations was conducted according to RTI-approved Standard Operating Procedures, and corn oil (the vehicle) was not characterized (certificate of analysis from the vendor is available in the appendices to the final reports). Male and female Sprague–Dawley rats (five dose levels plus a control, n = 10/sex/dose group, corn oil vehicle dose volume of 3 mL/kg; oral gavage) were used in these studies, and the rats were euthanized on SD 91. The dose levels for PFHI were 0, 12.5, 25, 50, 100, and 200 mg/kg-day. The dose levels for MHFPK were 0, 18.8, 37.5, 75, 150, and 300 mg/kg-day. The dose levels for PFNAC were 0, 0.1, 0.3, 1.0, 3.0, and 10 mg/kg-day for male rats and 0, 0.3, 1.0, 3.0, 10, and 30 mg/kg-day for female rats. For CTFPA, the dose levels were 0, 1.9, 3.8. 7.5, 15, and 30 mg/kg-day for male rats and 0, 6.3, 12.5, 25, 50, and 100 mg/kg-day for female rats. For each PFAS, three batches of dosing solution were prepared. The time between the batch preparation of the dosing solutions ranged between 29 and 39 days. Blood samples were collected from all the rats at termination for serum chemistry, hematology, coagulation, and the analysis of the parent PFAS chemical in the plasma. In vivo data collection and further detail on the endpoints examined postmortem are described below.
The rats were observed twice daily for morbidity and mortality throughout the study period. At least once prior to randomization to test groups and weekly thereafter, the rats were physically examined, and bodyweights were obtained. Feed consumption was quantified weekly starting on SD 1.
Neurotoxicity was evaluated using the functional observational battery (FOB) and measuring locomotor activity (LMA) 2–4 h post dosing on SDs 78–80 and 80–84, respectively. For both the 14- and 90-day studies, an ophthalmologic examination was conducted prior to randomization and near the end of the study, using indirect ophthalmoscopy and slit–lamp biomicroscopy (as needed) after the administration of a mydriatic solution.
Hematology, biochemistry, and coagulation endpoints were measured at the termination of the study. A Siemens Advia 2120i hematology analyzer (Siemens Healthineers, Erlangen, Germany) was used to measure (or calculate) the parameters related to the complete blood count, leukocyte differential count, and reticulocyte count. The hematology parameters are listed and described in Table 2. The prothrombin time […] and activated partial thromboplastin time (APTT) were measured using an Instrumentation Laboratory (Bedford, MA, USA) ACL Elite Pro coagulation analyzer (laser–nephelometric centrifugal method).
At necropsy, the rats were visually examined for external abnormalities and organ weights (absolute and relative to the BW and brain weight), which were recorded (paired organs weighed together). The tissues were preserved in 10% neutral buffered formalin (NBF), except for the ocular tissues, testes, and epididymides, which were preserved in modified Davidson’s fixative and later transferred to 10% NBF. Bone marrow smears were prepared from the femurs, and the slides were air-dried, fixed in methanol, stained, and stored at room temperature for possible future evaluation. The preserved tissues were embedded in paraffin, sectioned, stained with hematoxylin and eosin, and examined by a board-certified veterinary pathologist.
Statistical analysis was performed using Provantis™ Version 10 or greater (Instem LSS, Limited; Stone, Staffordshire, UK). Differences among the treatment groups compared to the control were evaluated using one-way analysis of variance (ANOVA) if the underlying assumptions of a normal distribution (Shapiro–Wilk test) and the homogeneity of the variance (Levene’s test) were satisfied. […]

CC(=O)C(F)(F)C(F)(F)C(F)(F)F [MHFPK, Methyl heptafluoropropyl ketone]
ALB (75 mg/kg-day): 3.18 ± 0.15 g/dL | ALPi (75 mg/kg-day): 121.9±37.5 U/L | APTT (75 mg/kg-day): 17.79 s | BUN (75 mg/kg-day): 15.8 ± 1.8 mg/dL | CHOL (75 mg/kg-day): 67.2 ± 7.1 mg/dL | GLOB (75 mg/kg-day): 3.70 ± 0.19 g/dL | GLUC (75 mg/kg-day): 214.9 ± 18.3 mg/dL | HCT (75 mg/kg-day): 50.90±1.81% | HGB (75 mg/kg-day): 15.70 ± 0.72 g/dL | Kidney Weight (75 mg/kg-day): 3.25 g | Kidney/Body Weight (75 mg/kg-day): 0.54% | Kidney/Brain Weight (75 mg/kg-day): 146% | Liver Weight (75 mg/kg-day): 15.73 g | Liver/Body Weight (75 mg/kg-day): 2.62% | Liver/Brain Weight (75 mg/kg-day): 706% | MPV (75 mg/kg-day): 7.92 ± 0.76 fL | PT (75 mg/kg-day): 16.37 s | RBC (75 mg/kg-day): 9.195±0.417 M/µL | Total BW change (75 mg/kg-day): 308.68 g | Total Food Consumed (75 mg/kg-day): 2218 g | % BW Gain (150 mg/kg-day): 104.78% | % Diff, % BW Gain (150 mg/kg-day): 7.09% | % Diff, Total BW change (150 mg/kg-day): 6.62% | % Diff, Total Food Consumed (150 mg/kg-day): 3.52% | A/G (150 mg/kg-day): 0.85±0.05 ratio | ABNEUT (150 mg/kg-day): 1.761±0.490 K/µL | ABRETi (150 mg/kg-day): 181.45±26.70 10^9/L | ABSEOS (150 mg/kg-day): 0.155±0.028 K/µL | ALB (150 mg/kg-day): 3.16 ± 0.18 g/dL | ALPi (150 mg/kg-day): 123.9±21.1 U/L | APTT (150 mg/kg-day): 18.41 s | BUN (150 mg/kg-day): 14.6 ± 1.7 mg/dL | CHOL (150 mg/kg-day): 71.1 ± 12.3 mg/dL | Decrease in the adrenal/BW ratio (150 mg/kg-day): 20% | GLOB (150 mg/kg-day): 3.72 ± 0.20 g/dL | GLUC (150 mg/kg-day): 206.8 ± 44.7 mg/dL | HCT (150 mg/kg-day): 50.21±1.86% | HGB (150 mg/kg-day): 15.30 ± 0.78 g/dL | Kidney Weight (150 mg/kg-day): 3.28 g | Kidney/Body Weight (150 mg/kg-day): 0.54% | Kidney/Brain Weight (150 mg/kg-day): 150% | Liver Weight (150 mg/kg-day): 15.50 g | Liver/Body Weight (150 mg/kg-day): 2.54% | Liver/Brain Weight (150 mg/kg-day): 709% | MPV (150 mg/kg-day): 8.53 ± 0.84 fL | PT (150 mg/kg-day): 16.77 s | RBC (150 mg/kg-day): 9.254±0.319 M/µL | Total BW change (150 mg/kg-day): 313.14 g | Total Food Consumed (150 mg/kg-day): 2253 g | % BW Gain (300 mg/kg-day): 102.36% | % Diff, % BW Gain (300 mg/kg-day): 4.62% | % Diff, Total BW change (300 mg/kg-day): 2.35% | % Diff, Total Food Consumed (300 mg/kg-day): 0.89% | A/G (300 mg/kg-day): 0.88±0.07 ratio | ABNEUT (300 mg/kg-day): 1.674±0.435 K/µL | ABRETi (300 mg/kg-day): 174.98±22.88 10^9/L | ABSEOS (300 mg/kg-day): 0.139±0.055 K/µL | ALB (300 mg/kg-day): 3.24 ± 0.18 g/dL | ALPi (300 mg/kg-day): 123.2±28.8 U/L | APTT (300 mg/kg-day): 17.66 s | Adrenal/BW ratio (300 mg/kg-day): no effect | BUN (300 mg/kg-day): 14.8 ± 3.7 mg/dL | CHOL (300 mg/kg-day): 76.0 ± 22.0 mg/dL | GLOB (300 mg/kg-day): 3.70 ± 0.19 g/dL | GLUC (300 mg/kg-day): 206.4 ± 24.4 mg/dL | HCT (300 mg/kg-day): 49.25±1.52% | HGB (300 mg/kg-day): 15.18 ± 0.47 g/dL | Kidney Weight (300 mg/kg-day): 3.24 g | Kidney/Body Weight (300 mg/kg-day): 0.55% | Kidney/Brain Weight (300 mg/kg-day): 144% | Liver Weight (300 mg/kg-day): 15.58 g | Liver/Body Weight (300 mg/kg-day): 2.61% | Liver/Brain Weight (300 mg/kg-day): 693% | MPV (300 mg/kg-day): 8.58 ± 0.84 fL | PT (300 mg/kg-day): 17.12 s | RBC (300 mg/kg-day): 8.946±0.337 M/µL | Total BW change (300 mg/kg-day): 300.61 g | Total Food Consumed (300 mg/kg-day): 2196 g
